Assays:
male NMRI mice = assay: Analgesic test using the phenylquinone-induced writhing test on mice; format: in vivo; details: 10 mg/kg intravenous
Protocol: The analysis of analgesic activity is carried out using the phenylquinone-induced writhing assay in mice, modified as described in the article by I. C. Hendershot and J. Forsaith ((1959) in J. Pharmacol. Exp. Ther. 125, 237-240).
For the present purpose, male NMRI mice are used having a weight of from 25 to 30 g. Groups of 10 animals per substance dose receive, 10 minutes after an intravenous dose of test substances, an intraperitoneal administration of 0.3 ml/mouse of a 0.02% strength aqueous solution of phenylquinone (phenylbenzoquinone, obtainable from Sigma, Deisenhofen; solution produced with the addition of 5% of ethanol and storage in a water bath at 45° C.). The animals are placed individually in observation cages. Using a pushbutton counter, the number of pain-induced stretching movements (so-called writhing reactions=straightening of the body accompanied by stretching of the rear extremities) was counted over a period of from 5 to 20 minutes following the administration of phenylquinone. The control is provided by animals receiving only physiological saline. All substances are tested using the standard dosage of 10 mg/kg.

5-HT transporter = molecular target: T1, 5-HT transporter (Rattus norvegicus, UniProt P31652); assay: Inhibition of 5-HT uptake in rat brain synaptosomes; format: biochemical; details: read-out: Uptake 5-HT, % inhibition; Table II; rat, 1 μM
T1 construct: synaptosomes of rat brain areas are freshly isolated; from tissue; host or cells: rat brain synaptosomes (P2 fraction) from marrow and pons

[1] = tested on: batrachotoxin (BTX) binding site of the sodium channel; assay: Affinity to the batrachotoxin (BTX) binding site of the sodium channel; details: Table II; rat cerebrocortex synaptosomes; test concentration not given
human μ-opioid receptor = human μ-opioid receptor (Homo sapiens, UniProt P35372); assay: Affinity to the human μ-opioid receptor ([3H]-naloxone displacement); details: read-out: μ (Naloxone), 1 μM, % inhibition
Sequence of human μ-opioid receptor (P35372 whole entry): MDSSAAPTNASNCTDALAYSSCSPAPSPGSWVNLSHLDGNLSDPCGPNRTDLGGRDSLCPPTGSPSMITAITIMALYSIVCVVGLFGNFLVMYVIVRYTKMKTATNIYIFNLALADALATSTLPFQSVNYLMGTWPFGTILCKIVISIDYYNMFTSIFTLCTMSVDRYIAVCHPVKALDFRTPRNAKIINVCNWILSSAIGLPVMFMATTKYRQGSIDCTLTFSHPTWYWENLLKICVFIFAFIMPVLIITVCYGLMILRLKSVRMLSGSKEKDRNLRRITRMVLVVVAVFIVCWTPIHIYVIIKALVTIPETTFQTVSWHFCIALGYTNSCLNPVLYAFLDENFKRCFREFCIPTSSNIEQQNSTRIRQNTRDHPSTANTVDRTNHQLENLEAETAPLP
Protocol: The receptor affinity to the human μ-opioid receptor is determined in a homogeneous batch in microtiter plates. For this purpose, dilution series of the substances to be tested are incubated at room temperature for 90 minutes in a total volume of 250 μL with a receptor membrane preparation (15-40 μg of protein/250 μL of incubation batch) of CHO-K1 cells which express the human μ-opioid receptor (RB-HOM receptor membrane preparation supplied by NEN, Zaventem, Belgium) in the presence of 1 nmol/L of the radioactive ligand [^3H]-naloxone (NET 719, supplied by NEN, Zaventem, Belgium), and of 1 mg of WGA-SPA beads (wheat germ agglutinin SPA beads supplied by Amersham/Pharmacia, Freiburg, Germany). As incubation buffer, 50 mmol/L of tris HCl supplemented with 0.05% (weight/volume) of sodium azide and with 0.06% (weight/volume) of bovine serum albumin is used. For determination of the nonspecific binding, 25 μmol/L of naloxone are added. On completion of the ninety-minute incubation time, the microtiter plates are centrifuged for 20 minutes at 1000 g and the radioactivity is measured in a β-counter (Microbeta-Trilux, supplied by PerkinElmer Wallac, Freiburg, Germany).
Based on the percentage displacement produced by different concentrations of the test substances, IC50 inhibitory concentrations are calculated which cause a 50 percent displacement of the radioactive ligand. As a result of recalculation using the Cheng-Prusoff relationship, the Ki values for the test substances can be obtained, as described in the publication of Y. Cheng, W. H. Prusoff, 1973, Biochem. Pharmacol., 22, pages 3099-3108.

T1 sequence (P31652 whole entry): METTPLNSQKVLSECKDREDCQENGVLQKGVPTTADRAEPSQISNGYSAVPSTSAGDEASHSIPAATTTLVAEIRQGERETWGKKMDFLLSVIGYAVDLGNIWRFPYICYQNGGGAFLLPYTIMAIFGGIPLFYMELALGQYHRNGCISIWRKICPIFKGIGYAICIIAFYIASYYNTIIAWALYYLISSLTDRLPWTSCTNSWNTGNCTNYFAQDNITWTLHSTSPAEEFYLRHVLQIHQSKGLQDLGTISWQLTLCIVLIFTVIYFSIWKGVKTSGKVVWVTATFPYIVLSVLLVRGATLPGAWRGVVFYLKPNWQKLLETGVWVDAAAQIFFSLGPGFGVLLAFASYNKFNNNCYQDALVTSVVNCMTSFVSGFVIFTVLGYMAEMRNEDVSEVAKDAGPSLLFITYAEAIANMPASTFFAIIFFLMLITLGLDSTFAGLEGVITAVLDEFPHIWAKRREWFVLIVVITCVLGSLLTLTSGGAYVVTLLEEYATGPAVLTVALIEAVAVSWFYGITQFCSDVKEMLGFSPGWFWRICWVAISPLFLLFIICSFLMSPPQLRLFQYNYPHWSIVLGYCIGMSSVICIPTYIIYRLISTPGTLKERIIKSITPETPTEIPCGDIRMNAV

SMILES | % Inhibition of the writhing reaction (Dosage in mg/kg intravenous) (male NMRI mice) | inhibition at 1 µM (5-HT transporter) | BTX inhibition [1] | inhibition at 1 µM (human μ-opioid receptor)
CCC(CC)C(=O)N1CCC2(CC1)N[C@@H](Cc1ccccc1)C(=O)N2Cc1ccccc1.Cl [Example 25, 1,3-(S)-dibenzyl-8-(2-ethylbutyryl)-1,4,8-triazaspiro[4,5]decan-2-one hydrochloride] | 42 (10) % | 66% | 47 | 66%
Cl.O=C(COc1ccccc1)N1CCC2(CC1)N[C@@H](Cc1ccccc1)C(=O)N2Cc1ccccc1 [Example 57, 1,3-(S)-dibenzyl-8-(2-phenoxyacetyl)-1,4,8-triazaspiro[4,5]decan-2-one hydrochloride] |  | 72% | 44 | 60%

Reference: patent US7951815B2, “Substituted 1,4,8-triazaspiro [4,5]decan-2-one compounds” (Gruenenthal GmbH, priority 2004, dated 2011)
